For this assay, the target named is human PAD4 (hPAD4) (Homo sapiens, UniProt Q9UM07). Description: RFMS human PAD4 functional assay (rapid-fire mass spectrum). It counts as biochemical. As to conditions: 5 nM hPAD4 enzyme, 250 μM BAEE, 50 μM Calcium; 30 min preincubation, 90 min reaction at 37° C. In short, it runs like this:
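PAD4 (10 nM) preincubated 30 min with compound (top final 50 μM), then BAEE substrate added in pH 7.5 HEPES buffer with DTT, 50 μM calcium, TPEN; 90 min at 37° C. After TCA quench, citrulline derivatized with phenyl glyoxal (4 mM final, 30 min, 37° C) and quantified by RapidFire MS against internal standard.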

Sequence of human PAD4 (hPAD4) (Q9UM07 whole entry): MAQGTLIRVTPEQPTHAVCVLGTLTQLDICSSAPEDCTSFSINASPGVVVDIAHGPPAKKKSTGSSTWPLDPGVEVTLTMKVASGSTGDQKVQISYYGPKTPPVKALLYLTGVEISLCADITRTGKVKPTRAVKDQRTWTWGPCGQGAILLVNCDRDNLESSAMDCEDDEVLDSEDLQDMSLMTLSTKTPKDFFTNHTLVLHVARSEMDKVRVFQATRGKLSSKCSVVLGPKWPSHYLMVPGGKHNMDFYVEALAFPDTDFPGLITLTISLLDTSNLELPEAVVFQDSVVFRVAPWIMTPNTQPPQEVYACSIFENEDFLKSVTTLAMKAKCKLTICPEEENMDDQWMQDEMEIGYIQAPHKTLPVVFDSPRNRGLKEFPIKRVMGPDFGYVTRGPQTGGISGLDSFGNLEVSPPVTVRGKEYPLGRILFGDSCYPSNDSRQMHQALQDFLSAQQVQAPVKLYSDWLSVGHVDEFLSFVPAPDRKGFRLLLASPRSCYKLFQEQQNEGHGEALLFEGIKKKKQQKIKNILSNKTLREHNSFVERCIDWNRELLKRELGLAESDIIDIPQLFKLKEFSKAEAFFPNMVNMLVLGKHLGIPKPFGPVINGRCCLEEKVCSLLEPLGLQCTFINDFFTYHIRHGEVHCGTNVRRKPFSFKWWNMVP

A word on the IC50: it is the concentration that inhibits the measured activity by half. Consider `COc1cc(C(=O)N2CC3CCC2[C@@H]3N)cc2nc(-c3cc4ccccc4n3CC3CC3)n(Cc3cnn(-c4cncc(C#N)c4)c3)c12` (stereo partly drawn) [Example 351, 5-[4-({5-[(7R)-7-amino~2-azabicyclo[2.2.1]heptane-2-carbonyl]-2-[1-(cyclopropylmethyl)-1H-indol-2-yl]-7-methoxy-1H-1,3-benzodiazol-1-yl}methyl)-1H-pyrazol-1-yl]pyridine-3-carbonitrile], for which the IC50 was found to be 18 nM.

As for `COc1cc(C(=O)N2C[C@H]3CC[C@@H]2[C@@H]3N)cc2nc(-c3cc4cccnc4n3C)n(C[C@H]3CCN(c4ccnc(C5CC5)n4)C3)c12` [Example 209, (1R,4R,7R)-2-(1-{[(3S)-1-(2-cyclopropylpyrimidin-4-yl)pyrrolidin-3-yl]methyl}-7-methoxy-2-{1-methyl-1H-pyrrolo[2,3-b]pyridin-2-yl}-1H-1,3-benzodiazole-5-carbonyl)-2-azabicyclo[2.2.1]heptan-7-amine], the half-inhibitory concentration (IC50) was found to be 61 nM.

For `COc1cc(C(=O)N2CC3CCC2[C@@H]3N)cc2nc(-c3cc4ccccc4n3CC3CC3)n(CC3(F)CN(C(=O)c4ccccc4)C3)c12` (stereo partly drawn) [Example 432, (7R)-2-{1-[(1-benzoyl-3-fluoroazetidin-3-yl)methyl]-2-[1-(cyclopropylmethyl)-1H-indol-2-yl]-7-methoxy-1H-1,3-benzodiazole-5-carbonyl}-2-azabicyclo[2.2.1]heptan-7-amine], the IC50 amounted to 31 nM.

Consider `COc1cc(C(=O)N2C[C@H]3CC[C@@H]2[C@@H]3N)cc2nc(-c3cc4cccnc4n3CC3CC3)n(CC3CN(c4cccc5c4CNC5=O)C3)c12` [Example 55, 4-[3-({5-[(1R,4R,7R)-7-amino-2-azabicyclo[2.2.1]heptane-2-carbonyl]-2-[1-(cyclopropylmethyl)-1H-pyrrolo[2,3-b]pyridin-2-yl]-7-methoxy-1H-1,3-benzodiazol-1-yl}methyl)azetidin-1-yl]-2,3-dihydro-1H-isoindol-1-one], for which the IC50 was 163 nM.

In the case of `COc1cc(C(=O)N2C[C@H]3CC[C@@H]2[C@@H]3N)cc2nc(-c3cc4cccnc4n3CC3CC3)n(CC3CN(c4ncc(Br)cn4)C3)c12` [Example 32, (1R,4R,7R)-2-(1-{[1-(5-bromopyrimidin-2-yl)azetidin-3-yl]methyl}-2-[1-(cyclopropylmethyl)-1H-pyrrolo[2,3-b]pyridin-2-yl]-7-methoxy-1H-1,3-benzodiazole-5-carbonyl)-2-azabicyclo[2.2.1]heptan-7-amine], the IC50 was 86 nM.

As to `COc1cc(C(=O)N2C[C@H](N)C[C@@H](F)C2)cc2nc(-c3cc4ccccc4n3CC3CC3)n(CC3CC(=O)N(C)C3)c12` (mixture of isomers) [Example 281, 4-({5-[(3R,5R)-3-amino-5-fluoropiperidine-1-carbonyl]-2-[1-(cyclopropylmethyl)-1H-indol-2-yl]-7-methoxy-1H-1,3-benzodiazol-1-yl}methyl)-1-methylpyrrolidin-2-one], the IC50 came out at 649 nM.

As to `COc1cc(C(=O)N2C[C@H](N)C[C@@H](F)C2)cc2nc(-c3cc4cccnc4n3CC3CC3)n(Cc3cnn(-c4ncc(F)cc4F)c3)c12` [Example 393, (3R,5R)-1-{2-[1-(cyclopropylmethyl)-1H-pyrrolo[2,3-b]pyridin-2-yl]-1-{[1-(3,5-difluoropyridin-2-yl)-1H-pyrazol-4-yl]methyl}-7-methoxy-1H-1,3-benzodiazole-5-carbonyl}-5-fluoropiperidin-3-amine], the 50% inhibitory concentration (IC50) is 49 nM.

With `COC(=O)N[C@H]1C[C@@H](n2c(-c3cc4cccnc4n3CC3CC3)nc3cc(C(=O)N4CC5CCC4[C@@H]5N)cc(OC)c32)C1` (stereo partly drawn) [Example 301, methyl N-[(1s,3s)-3-{5-[(1R,4R,7R)-7-amino-2-azabicyclo[2.2.1]heptane-2-carbonyl]-2-[1-(cyclopropylmethyl)-1H-pyrrolo[2,3-b]pyridin-2-yl]-7-methoxy-1H-1,3-benzodiazol-1-yl}cyclobutyl]carbamate], the IC50 amounted to 1000 nM.

Turning to `COc1cc(C(=O)N2CC3CCC2[C@@H]3N)cc2nc(-c3cc4cccnc4n3CC3CC3)n(CC3CN(C(=O)[C@H]4C[C@@H]4c4ccccc4)C3)c12` (stereo partly drawn) [Example 103, (1R,4R,7R)-2-{2-[1-(cyclopropylmethyl)-1H-pyrrolo[2,3-b]pyridin-2-yl]-7-methoxy-1-({1-[(1S,2S)-2-phenylcyclopropanecarbonyl]aze-tidin-3-yl}-methyl)-1H-1,3-benzodiazole-5-carbonyl}-2-azabicyclo[2.2.1]heptan-7-amine], the half-maximal inhibitory concentration (IC50) worked out at 14 nM.

With `COc1cnc(N2CC(Cn3c(-c4cc5cccnc5n4CC4CC4)nc4cc(C(=O)N5C[C@H]6CC[C@@H]5[C@@H]6N)cc(OC)c43)C2)cn1` [Example 33, (1R,4R,7R)-2-{2-[1-(cyclopropylmethyl)-1H-pyrrolo[2,3-b]pyridin-2-yl]-7-methoxy-1-{[1-(5-methoxypyrazin-2-yl)azetidin-3-yl]methyl}-1H-1,3-benzodiazole-5-carbonyl}-2-azabicyclo[2.2.1]heptan-7-amine], the IC50 worked out at 87 nM.

With `COc1cc(C(=O)N2C[C@H](N)C[C@@H](F)C2)cc2nc(-c3cc4ccccc4n3CC3CC3)n(CC3CN(C(=O)c4cc(C#N)ccc4F)C3)c12` [Example 152, 3-[3-({5-[(3R,5R)-3-amino-5-fluoropiperidine-1-carbonyl]-2-[1-(cyclopropylmethyl)-1H-indol-2-yl]-7-methoxy-1H-1,3-benzodiazol-1-yl}methyl)azetidine-1-carbonyl]-4-fluorobenzonitrile], the 50% inhibitory concentration (IC50) stood at 21 nM.

Consider `COc1cc(C(=O)N2C[C@H]3CC[C@@H]2[C@@H]3N)cc2nc(-c3cc4ccccc4n3CC3CC3)n(CC3CN(C(=O)c4cccc(Cl)c4)C3)c12` [Example 154, (1R,4R,7R)-2-(1-{[1-(3-chlorobenzoyl)azetidin-3-yl]methyl}-2-[1-(cyclopropylmethyl)-1H-indol-2-yl]-7-methoxy-1H-1,3-benzodiazole-5-carbonyl)-2-azabicyclo[2.2.1]heptan-7-amine], for which the IC50 was 21 nM.

As for `COc1cc(C(=O)N2C[C@H]3CC[C@@H]2[C@@H]3N)cc2nc(-c3cc4cccnc4n3CC3CC3)n(CC3CN(S(C)(=O)=O)C3)c12` [Example 338, (1R,4R,7R)-2-{2-[1-(cyclopropylmethyl)-1H-pyrrolo[2,3-b]pyridin-2-yl]-1-[(1-methanesulfonylazetidin-3-yl)methyl]-7-methoxy-1H-1,3-benzodiazole-5-carbonyl}-2-azabicyclo[2.2.1]heptan-7-amine], the IC50 worked out at 498 nM.

As for “6-[(3S)-3-({5-[(1R,4R,7R,)-7- amino-2- azabicyc1o[2.2.1]heptane-2- carbonyl]-7-methoxy-2-{1- methyl-1H-pyrrolo[2,3- b]pyridin-2-yl}-1H-1,3- benzodiazol-1- yl}methyl)pyrrolidin-1- yl]pyrazine-2-carbonitrile [Example 235]”, the IC50 was 366 nM.

As for `COc1cc(C(=O)N2C[C@H]3CC[C@@H]2[C@@H]3N)cc2nc(-c3cc4ccccc4n3CC3CC3)n(CC3CN(C(=O)c4cnn(C)c4)C3)c12` [Example 155, (1R,4R,7R)-2-{2-[1-(cyclopropylmethyl)-1H-indol-2-yl]-7-methoxy-1-{[1-(1-methyl-1H-pyrazole-4-carbonyl)azetidin-3-yl]methyl}-1H-1,3-benzodiazole-5-carbonyl}-2-azabicyclo[2.2.1]heptan-7-amine], the IC50 was 22 nM.

These data come from patent publication US12692254B2, “Benzimidazole inhibitors of PAD enzymes” (BRISTOL-MYERS SQUIBB COMPANY, priority 2018, dated 2026).
